Laboratory results published in paper PMC5605198, “MELK is not necessary for the proliferation of basal-like breast cancer cells” (eLife, 2017).
Like-named read-outs stand apart in the source and are kept apart here.

What was measured:
[1] = test system: WT and MELK−/− MDA-MB-468 cells; assay: 3-day proliferation assays comparing WT and MELK−/− cells; type: cell-based; details: clone E9 vs clone C7
Source text: We compared a WT clone (clone E9) and a MELK−/− clone (clone C7) with the parental cell line, and observed no significant difference in growth rate or cell cycle distribution (Figure 3A,B,C).
Figure 3. WT and MELK−/− MDA-MB-468 cells have similar growth rates, cell cycle distribution, and sensitivity to MELK inhibitors. (A) Immunoblots for MELK and GAPDH in WT (clone E9) and MELK−/− (clone C7) clones isolated from MDA-MB-468 cells transfected with sgMELK-3 and Cas9. See also Figure 3—figure supplements 1 and 2, and Figure 3—source data 1 for the details of the generation of MELK−/− clones. (B) 5-day proliferation curves comparing the growth rates of parental, WT, and MELK−/− MDA-MB-468 cells. Values represent two independent experimental mean ±SD. (C) Cell cycle analysis comparing WT and MELK−/− MDA-MB-468 cells. Values represent triplicate mean ±SD. […] Values represent duplicate mean ±SD. Error bars shorter than the height of the symbol are not drawn. Figure 3—source data 1. Genotype analysis of single cell clones selected from MDA-MB-468 cells transfected with Cas9/sgMELK-3. Figure 3—figure supplement 1. CRISPR/Cas9-mediated knockout of MELK in MDA-MB-468 cells. (A) Tracking of Indels by Decomposition (TIDE) analysis ([Brinkman et al., 2014]) of MDA-MB-468 cells transfected with Cas9/sgMELK-3 and enriched by the transfection marker OFP. […]

AMPK = assay: ICKP radiometric kinase assay; details: 1 μM
MELK [2] = molecular target: T1, MELK (Homo sapiens, UniProt Q14680); assay: Z’-LYTE enzymatic assay; type: biochemical
CDK7 = CDK7 (Homo sapiens, UniProt P50613); assay: Adapta kinase assay; details: Adapta assay at [ATP]=apparent Km; read-out: Biochemical IC50 CDK7
141 kinases = assay: ICKP panel radiometric kinase profiling (summary); type: biochemical; details: radioactive filter-binding assay; kinases inhibited more strongly than MELK in the ICKP panel; read-out: IC50 values of potential off-target kinases
ERK1/2 = assay: Cellular kinase engagement assay (KiNativ), ATP-biotin probe pull-down; type: cell-based; details: MDA-MB-468 cells, with MG132, 1 hour
Source text: (§1) After confirming HTH-01-091 as a potent MELK inhibitor in biochemical assays, we next investigated whether HTH-01-091 engages MELK in cells. We performed a KiNativ assay to measure HTH-01-091 engagement with the ATP binding pocket of MELK, which would prevent active-site labeling from a lysine-reactive ATP-biotin probe ([Patricelli et al., 2007]). […] As a control, ERK1/2 pull-down was not affected by HTH-01-091 treatment, consistent with our profiling data showing no binding affinity of HTH-01-091 to ERK1/2 (Figure 2A, Figure 1—source data 1).
(§2) Figure 2. […] (A) Immunoblots analyzing the pull-down levels of MELK and ERK1/2 by ATP-biotin probes and streptavidin beads from MDA-MB-468 cells treated with different doses of HTH-01-091 and […] MG132 for 1 hour. […] See also Figure 2—figure supplement 1 for rescue experiments using carfilzomib and MLN4924. (C) 3-day antiproliferation assays of HTH-01-091 and other MELK inhibitors tested in MDA-MB-468 (basal) and ZR-75-1 (luminal) cells. Values represent two independent experimental mean ±SD. Error bars shorter than the height of the symbol are not drawn. […] Figure 2—figure supplement 1. […]
(§3) MDA-MB-468 cells on 10 cm plates were treated with HTH-01-091 at indicated concentrations and MG132 (10 μM) for an hour. […] The beads were boiled at 95°C for 10 min and analyzed by immunoblotting.

MELK [3] = molecular target: T1, MELK; assay: as above; type: cell-based; details: MDA-MB-468 cells, different doses, with MG132, 1 hour
Source text: as §1, §2, §3

MLK3 = MLK3 (Homo sapiens, UniProt Q16584); assay: ICKP radiometric kinase assay; type: biochemical; details: read-out: % AR (% kinase activity remaining)
MLK3, sequence (Q16584 whole entry): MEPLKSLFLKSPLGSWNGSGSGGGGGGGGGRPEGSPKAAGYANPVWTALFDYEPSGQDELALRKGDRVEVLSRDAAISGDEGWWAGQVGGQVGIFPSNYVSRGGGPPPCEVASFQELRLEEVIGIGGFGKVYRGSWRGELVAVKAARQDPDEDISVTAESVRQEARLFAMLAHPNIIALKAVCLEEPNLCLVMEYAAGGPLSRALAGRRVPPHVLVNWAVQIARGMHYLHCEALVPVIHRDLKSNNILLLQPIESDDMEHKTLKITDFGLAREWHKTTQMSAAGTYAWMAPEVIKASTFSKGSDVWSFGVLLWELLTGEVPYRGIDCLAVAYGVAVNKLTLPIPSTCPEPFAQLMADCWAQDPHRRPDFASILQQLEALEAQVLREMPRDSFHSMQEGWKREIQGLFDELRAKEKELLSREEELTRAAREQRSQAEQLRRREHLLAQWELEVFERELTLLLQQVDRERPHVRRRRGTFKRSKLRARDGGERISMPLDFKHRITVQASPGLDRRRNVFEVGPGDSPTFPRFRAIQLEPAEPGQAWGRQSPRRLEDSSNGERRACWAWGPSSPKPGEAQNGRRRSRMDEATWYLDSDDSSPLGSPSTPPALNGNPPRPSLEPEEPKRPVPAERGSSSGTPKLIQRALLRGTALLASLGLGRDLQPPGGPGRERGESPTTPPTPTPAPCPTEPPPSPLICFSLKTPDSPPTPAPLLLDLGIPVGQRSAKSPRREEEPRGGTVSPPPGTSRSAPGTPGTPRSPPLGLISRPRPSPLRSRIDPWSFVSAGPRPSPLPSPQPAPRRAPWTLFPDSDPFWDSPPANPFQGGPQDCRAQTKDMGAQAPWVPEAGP

T1 sequence (Q14680 whole entry): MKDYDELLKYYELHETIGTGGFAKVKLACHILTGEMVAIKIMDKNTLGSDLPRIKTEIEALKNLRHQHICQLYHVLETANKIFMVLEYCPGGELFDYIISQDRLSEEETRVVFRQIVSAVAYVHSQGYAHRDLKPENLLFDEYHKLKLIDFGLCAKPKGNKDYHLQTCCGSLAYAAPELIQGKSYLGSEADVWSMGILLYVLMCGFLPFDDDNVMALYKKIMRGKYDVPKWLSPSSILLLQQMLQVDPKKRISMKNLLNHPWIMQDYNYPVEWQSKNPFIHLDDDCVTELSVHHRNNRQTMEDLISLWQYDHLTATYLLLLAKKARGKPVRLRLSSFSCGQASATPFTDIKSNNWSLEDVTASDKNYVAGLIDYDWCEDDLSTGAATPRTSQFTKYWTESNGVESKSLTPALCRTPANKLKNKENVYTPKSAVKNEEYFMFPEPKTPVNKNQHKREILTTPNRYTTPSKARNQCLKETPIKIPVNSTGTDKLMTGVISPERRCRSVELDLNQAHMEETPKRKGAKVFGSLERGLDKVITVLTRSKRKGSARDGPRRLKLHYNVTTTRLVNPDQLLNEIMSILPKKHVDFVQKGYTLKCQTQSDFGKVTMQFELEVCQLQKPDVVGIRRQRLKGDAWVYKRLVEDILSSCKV
CDK7, sequence (P50613 whole entry): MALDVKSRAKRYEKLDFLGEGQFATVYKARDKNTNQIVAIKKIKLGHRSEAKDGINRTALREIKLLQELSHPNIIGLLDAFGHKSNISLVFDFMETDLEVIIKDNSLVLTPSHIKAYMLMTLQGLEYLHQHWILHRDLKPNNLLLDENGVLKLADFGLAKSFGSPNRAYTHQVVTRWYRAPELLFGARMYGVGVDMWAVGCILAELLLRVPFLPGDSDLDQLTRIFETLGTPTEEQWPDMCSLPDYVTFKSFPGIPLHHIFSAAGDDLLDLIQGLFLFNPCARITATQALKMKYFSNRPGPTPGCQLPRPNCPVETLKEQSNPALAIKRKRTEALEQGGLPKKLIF
CDK7, sequence (P51946 whole entry partner): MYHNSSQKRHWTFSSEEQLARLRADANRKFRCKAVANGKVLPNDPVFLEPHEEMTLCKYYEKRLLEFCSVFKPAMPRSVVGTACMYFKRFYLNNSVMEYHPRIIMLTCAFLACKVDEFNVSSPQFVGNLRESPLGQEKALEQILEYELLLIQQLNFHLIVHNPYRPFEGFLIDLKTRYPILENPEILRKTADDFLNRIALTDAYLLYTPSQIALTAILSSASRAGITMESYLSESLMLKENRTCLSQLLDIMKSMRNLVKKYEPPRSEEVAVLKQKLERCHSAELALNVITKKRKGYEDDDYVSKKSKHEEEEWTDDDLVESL
CDK7, sequence (P51948 whole entry partner): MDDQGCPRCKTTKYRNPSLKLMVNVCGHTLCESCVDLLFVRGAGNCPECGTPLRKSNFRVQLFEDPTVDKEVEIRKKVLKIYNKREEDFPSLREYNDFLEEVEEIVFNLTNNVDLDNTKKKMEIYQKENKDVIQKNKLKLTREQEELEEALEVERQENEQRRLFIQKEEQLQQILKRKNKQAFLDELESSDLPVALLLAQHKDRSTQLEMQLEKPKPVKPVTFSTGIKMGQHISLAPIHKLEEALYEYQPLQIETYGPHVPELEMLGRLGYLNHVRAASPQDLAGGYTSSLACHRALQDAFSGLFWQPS

Row | Compound | difference in sensitivity between WT and MELK−/− cells [1] | % AR (% kinase activity remaining) (AMPK) [%] | IC50 (MELK [2]; Z’-LYTE assay at [ATP]=apparent Km, read-out: Biochemical IC50 MELK) [µM] | IC50 (MELK [2]; measured by Z’LYTE biochemical assay, class symbols in Figure 2C, read-out: Potency (MELK)) [µM] | IC50 (MELK [2]; note column of Table 3, read-out: Note: MELK IC50) [µM] | IC50 (CDK7) [µM] | IC50 (141 kinases) [µM] | ERK1/2 pull-down (control) (ERK1/2) | MELK pull-down by streptavidin beads (ATP-biotin probe) (MELK [3]) | remaining activity at 1 µM (MLK3) [%]
1 | CC(=O)c1cnc2ccc(-c3cc(Cl)c(O)c(Cl)c3)nc2c1N[C@H]1CC[C@H](CN(C)C)CC1 [OTSSP167] | did not observe differences in cell viability | 2 |  |  |  |  |  |  |  | 
2 | CN(C)C[C@H]1CC[C@H](N2C(=O)NCc3cnc4ccc(-c5cc(Cl)c(O)c(Cl)c5)cc4c32)CC1 [HTH-01-091, 9-(3,5-dichloro-4-hydroxyphenyl)-1-(trans-4-((dimethylamino)methyl)cyclohexyl)-3,4-dihydropyrimido[5,4 c]quinolin-2(1H)-one] |  |  | 0.0105 | < 0.02 | 0.0105 | 1.23 | 0.042 to 0.109 | not affected | dose-dependently decreased MELK pull-down | 54
